Results on one substance are retold here after US9237988B2, “Benzalkonium chloride compositions for inhibiting the hydrolytic activity of endogenous matrix metalloproteinases in dental restorations” (Bisco, Inc., priority 2010, dated 2016).

In this test the target is MMP-9 enzymes (Homo sapiens, UniProt P14780). As to the kind of experiment: MMP inhibition after incubation with MMP-9 enzymes, Anaspec SensoLyte Generic MMP Assay Kit. Particulars: for Percent MMP Inhibition at 1 Hour / Percent MMP Inhibition at 4 Hours: aqueous solution; for Percent MMP Inhibition at 1 Hour: 1 hour incubation; for Percent MMP Inhibition at 4 Hours: 4 hours incubation. The test is classed as biochemical. As to the method:
According to another presently expected one exemplary embodiment of the present application, multiple benzalkonium chloride dental solutions were prepared in aqueous solutions in concentrations varying from 0.02% to 2%, and were incubated with MMP-9 enzymes for 4 hours. After both 1 and 4 hours of incubation, standard negative and positive controls were compared to the below concentrations of the test compositions using an Anaspec SensoLyte Generic MMP Assay Kit (#72095, Anaspec, Fremont, Calif., USA), with the resulting MMP inhibitions shown in Tables 1 and 2 below.

[1] abbreviates: 0.5% BAC by weight, listed as benzalkonium chloride.

Chain of MMP-9 enzymes (P14780 94-707): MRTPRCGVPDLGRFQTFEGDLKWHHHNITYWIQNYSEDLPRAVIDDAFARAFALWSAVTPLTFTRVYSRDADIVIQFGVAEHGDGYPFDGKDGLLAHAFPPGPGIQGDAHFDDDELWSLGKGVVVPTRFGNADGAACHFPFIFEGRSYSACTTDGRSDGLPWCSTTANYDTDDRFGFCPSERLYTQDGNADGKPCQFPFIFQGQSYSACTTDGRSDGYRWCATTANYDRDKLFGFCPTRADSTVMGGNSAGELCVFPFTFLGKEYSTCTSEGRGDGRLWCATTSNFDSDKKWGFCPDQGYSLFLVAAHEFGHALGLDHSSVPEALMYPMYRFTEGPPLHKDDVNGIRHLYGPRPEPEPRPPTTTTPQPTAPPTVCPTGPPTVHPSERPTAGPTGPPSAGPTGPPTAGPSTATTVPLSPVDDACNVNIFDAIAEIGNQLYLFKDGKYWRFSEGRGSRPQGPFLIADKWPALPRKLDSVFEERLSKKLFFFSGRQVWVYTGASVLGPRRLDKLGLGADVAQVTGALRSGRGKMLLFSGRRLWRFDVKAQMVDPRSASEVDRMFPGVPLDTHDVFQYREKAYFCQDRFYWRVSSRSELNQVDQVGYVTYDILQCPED

On to benzalkonium chloride [BAC], for which the “Percent MMP Inhibition at 1 Hour” value (0.02% BAC by weight) was 0%; the “Percent MMP Inhibition at 1 Hour” value (0.05% BAC by weight) came out at 0%; the “Percent MMP Inhibition at 1 Hour” value (0.5% BAC by weight) was 96.5%; the “Percent MMP Inhibition at 1 Hour” value under setting [1] was 96%; the “Percent MMP Inhibition at 1 Hour” value (1.0% BAC by weight) came to 98.3%; the “Percent MMP Inhibition at 1 Hour” value (2.0% BAC by weight) came to 100%. The “Percent MMP Inhibition at 4 Hours” value (0.02% BAC by weight) was 3%; the “Percent MMP Inhibition at 4 Hours” value (0.05% BAC by weight) was 6%; the “Percent MMP Inhibition at 4 Hours” value (0.5% BAC by weight) was determined as 85%; the “Percent MMP Inhibition at 4 Hours” value under setting [1] is given as “at least 85%”; the “Percent MMP Inhibition at 4 Hours” value (1.0% BAC by weight) is recorded as 95%; the “Percent MMP Inhibition at 4 Hours” value (2.0% BAC by weight) is listed as 100%. Besides, the MMP inhibition result (concentration as low as 0.02% by weight, time not stated) is reported as “displayed MMP inhibition”.
